In ChEMBL document CHEMBL6096638, “Design, synthesis and biological evaluation of novel TMPRSS2-PROTACs with florosubstituted 4-guanidino-N-phenylbenzamide derivative ligands” (Bioorg Med Chem, 2024):
Active and inactive are the calls of the source. No cut-off for these calls is given here.

Legend:
Format in all cases: functional
Calu-3 = assay: Antiproliferative activity against human Calu-3 cells assessed as inhibition of cell growth at 20 uM incubated for 48 hrs by CCK-8 assay relative to control
DU-145 = assay: Antiproliferative activity against human DU-145 cells assessed as inhibition of cell growth at 20 uM incubated for 48 hrs by CCK-8 assay relative to control
HT-29 = assay: Antiproliferative activity against human HT-29 cells assessed as inhibition of cell growth at 20 uM incubated for 48 hrs by CCK-8 assay relative to control

Row | SMILES | inhibition (Calu-3) | inhibition at 20 µM (DU-145) | inhibition at 20 µM (HT-29) | inhibition (DU-145) | inhibition at 20 µM (Calu-3)
1 | COc1cc(C(=O)Nc2ccc(CC(=O)NCCCCCCCC(=O)N[C@H](C(=O)N3C[C@H](O)C[C@H]3C(=O)NCc3ccc(-c4scnc4C)cc3)C(C)(C)C)cc2)ccc1NC(=N)N | inactive | 11.2% | 31.6% | – | –
2 | Cc1ncsc1-c1ccc(CNC(=O)[C@@H]2C[C@@H](O)CN2C(=O)[C@@H](NC(=O)OCCOCCOCCOCc2cccc(NC(=O)c3ccc(NC(=N)N)cc3)c2)C(C)(C)C)cc1 | inactive | 13.7% | 15.1% | – | –
3 | COc1cc(C(=O)Nc2ccc(CC(=O)NCCCCCC(=O)N[C@H](C(=O)N3C[C@H](O)C[C@H]3C(=O)NCc3ccc(-c4scnc4C)cc3)C(C)(C)C)cc2)ccc1NC(=N)N | inactive | 7.56% | 20.5% | – | –
4 | COc1cc(C(=O)Nc2ccc(N3CCN(CC(=O)N[C@H](C(=O)N4C[C@H](O)C[C@H]4C(=O)NCc4ccc(-c5scnc5C)cc4)C(C)(C)C)CC3)cc2)ccc1NC(=N)N | inactive | 6.76% | 30.7% | – | –
5 | Cc1ncsc1-c1ccc(CNC(=O)[C@@H]2C[C@@H](O)CN2C(=O)[C@@H](NC(=O)CN2CCC(CN3CCN(c4ccc(NC(=O)Cc5ccc(NC(=O)c6ccc(NC(=N)N)cc6)cc5)cc4)CC3)CC2)C(C)(C)C)cc1 | inactive | 5.63% | 25.9% | – | –
6 | COc1cc(C(=O)Nc2ccc(CC(=O)Nc3ccc(CC(=O)NCCCCCCNc4cccc5c4C(=O)N(C4CCC(=O)NC4=O)C5=O)cc3)cc2)ccc1NC(=N)N (configuration not stated) | inactive | 16.5% | 32.7% | – | –
7 | Cc1ncsc1-c1ccc(CNC(=O)[C@@H]2C[C@@H](O)CN2C(=O)[C@@H](NC(=O)CN2CCN(c3ccc(NC(=O)c4ccc(NC(=N)N)cc4)cc3)CC2)C(C)(C)C)cc1 | inactive | 9.51% | 29.7% | – | –
8 | N=C(N)Nc1ccc(C(=O)Nc2ccc(CC(=O)NCCCCCC(=O)N3CCN(c4ccc5c(c4)C(=O)N(C4CCC(=O)NC4=O)C5=O)CC3)cc2)cc1 (configuration not stated) | inactive | 5.82% | 22.4% | – | –
9 | COc1cc(C(=O)Nc2ccc(CC(=O)NCCCCCC(=O)N3CCN(c4ccc5c(c4)C(=O)N(C4CCC(=O)NC4=O)C5=O)CC3)cc2)ccc1NC(=N)N (configuration not stated) | inactive | 7.04% | 7.56% | – | –
10 | COc1cc(C(=O)Nc2ccc(CC(=O)N3CCC(CN4CCN(c5ccc6c(c5)C(=O)N(C5CCC(=O)NC5=O)C6=O)CC4)CC3)cc2)ccc1NC(=N)N (configuration not stated) | inactive | 14.6% | 37.7% | – | –
11 | Cc1ncsc1-c1ccc(CNC(=O)[C@@H]2C[C@@H](O)CN2C(=O)[C@@H](NC(=O)COCCOCCOCCN2CCN(c3ccc(NC(=O)c4ccc(NC(=N)N)cc4)cc3)CC2)C(C)(C)C)cc1 | inactive | – | 14.4% | inactive | –
12 | Cc1ncsc1-c1ccc(CNC(=O)[C@@H]2C[C@@H](O)CN2C(=O)[C@@H](NC(=O)CN2CCC(CN3CCN(c4ccc(NC(=O)c5ccc(NC(=N)N)cc5)cc4)CC3)CC2)C(C)(C)C)cc1 | inactive | 6.8% | 35.5% | – | –
13 | Cc1ncsc1-c1ccc(CNC(=O)[C@@H]2C[C@@H](O)CN2C(=O)[C@@H](NC(=O)CN2CCC(CN3CCN(c4ccc(NC(=O)Cc5ccc(NC(=O)c6ccc(NC(=N)N)cc6F)cc5)cc4)CC3)CC2)C(C)(C)C)cc1 | inactive | 5.64% | 37.3% | – | –
14 | COc1cc(C(=O)Nc2ccc(CC(=O)Nc3ccc(N4CCN(CC5CCN(CC(=O)N[C@H](C(=O)N6C[C@H](O)C[C@H]6C(=O)NCc6ccc(-c7scnc7C)cc6)C(C)(C)C)CC5)CC4)cc3)cc2)ccc1NC(=N)N | – | 5.06% | 18.4% | – | 5.66%
